Test: Open label, randomised two-way cross-over pharmacokinetic study of free serum testosterone after daily transdermal spray for 5 days
Format: in vivo, women
Procedure: The study was a single centre, open label pharmacokinetic study, with a randomised, two-way, cross-over design. The two treatment periods were 5 days with an eight day washout between treatments. Intensive blood sampling was performed on day 5 of each treatment period for pharmacokinetic analysis. The treatments consisted of daily application of 2×91 μL sprays for 5 days, either applied to the abdomen or forearm. Free serum testosterone concentration profiles were measured over 24 hours after daily administration of transdermal testosterone for 5 days to 6 healthy surgically menopausal women stabilized on oral oestrogen therapy. HPLC separation (followed by RIA) and equilibrium dialysis were used to measure free testosterone (Esoterix Inc.).

C[C@]12CC[C@H]3[C@@H](CCC4=CC(=O)CC[C@@]43C)[C@@H]1CC[C@@H]2O [testosterone]
average serum concentrations of free testosterone, forearm compared with abdomen (application to the forearm, day 5, FIG. 1): significantly higher
Steady-state concentrations of free testosterone (daily application for 5 days, abdomen or forearm): attained on day 5
variation of free testosterone serum concentrations, abdomen compared with forearm (dose application to the abdomen, day 5, FIG. 1): considerably less variation

From patent US20050002868A1, “Method of treatment of a female suffering from androgen insufficiency” (Acrux DDS Pty Ltd., priority 2003, published 2005)
